Measurements as given in article PMC6155852, “Oral Administration of the Japanese Traditional Medicine Keishibukuryogan-ka-yokuinin Decreases Reactive Oxygen Metabolites in Rat Plasma: Identification of Chemical Constituents Contributing to Antioxidant Activity” (Molecules : A Journal of Synthetic Chemistry and Natural …, 2017).
Where “and” joins values, the source holds several entries; their conditions need not be identical. Equal values may be shown once. Read-outs that look alike come from different tables or passages of the source.

Assays:
[1] = ROS scavenging assay (hydrogen peroxide-dependent oxidation); assay type: biochemical; details: for IC50: concentration-dependency, Figure 4
Experimental: Hydrogen peroxide-dependent oxidation tests were performed using Oxiselect™ In Vitro ROS/RNS Assay kits (Cellbiolab Inc., San Diego, CA, USA) according to the manufacturer’s protocol. Briefly, a test sample was mixed with hydrogen peroxide (final concentration: 2.5 μmol/L) and incubated for 5 min. A fluorescent reaction was started by the addition of a fluorescent probe (dichrolodihydrofluorescin-DiOxyQ) at room temperature. After incubation for 15 min, relative fluorescent units (RFUs) were measured at […] using a fluorescent plate reader (Infinite M200; Tecan Trading AG, Männedorf, Switzerland). The percentage of control was calculated using the following formula; (A − B)/(C − B) × 100, with A = test sample, B = fluorescent probe alone, and C = vehicle control. (+)-Ascorbic acid was used as a reference agent.

[2] = Plasma pharmacokinetics of KBGY constituents in rats after single oral administration of KBGY; assay type: in vivo, rat
Experimental: KBGY prepared in water was administered orally to 16 h fasted rats at a dose of 2 g/10 mL/kg (n = 3). […] Plasma was obtained by centrifugation at 1700× g for 15 min at 4 °C and stored at −80 °C until analysis.
For quantification of the dicarboxylic acid, 50 µL of standard solution, 100 µL of acetic acid (2%, v/v), and 650 µL of ethyl acetate were added to 200 µL of plasma samples, followed by mixing and centrifugation (7000× g, 5 min). The supernatants were collected and dried with a centrifugal evaporator and concentration system (CC-105; TOMY SEIKO Co., Tokyo, Japan). The residue was dissolved with 100 µL acetonitrile and 50 µL BF3/butanol solution; the dissolved solution was incubated for 1 h at 60 °C. The reaction was terminated by the addition of 50 µL of water and hexane, 150 µL of a saturated solution of sodium chloride, and 400 µL of hexane. The solution was vortexed for 2 min, and the supernatant was obtained by centrifugation (7000× g, 5 min). Liquid–liquid extraction was repeated twice. The corrected supernatant was dried with the centrifugal evaporator and concentration system. The dried residue was dissolved in 100 µL of acetonitrile containing 1 µg/mL of o-terphenyl (Tokyo Chemical Ind. Co.) as an internal standard (IS). Five microliters of the solution was then injected into the GC/MS system.
For quantification of volatile organic compounds (cinnamaldehyde, methyl cinnamate, 2-methoxycinnamaldehyde, mandelonitrile, salicylaldehyde, eugenol, cinnamyl alcohol, and 3-phenylpropyl acetate), 25 µL of standard solution, 25 µL of 2 µg/mL of 1,4-dibromobenzene (Tokyo Chemical Ind. Co.) as IS, and 500 µL of acetonitrile were added to 200 µL of plasma samples, followed by mixing and centrifugation (7000× g, 5 min). Five microliters of the supernatant was then injected into the GC/MS system.
For quantification of other compounds, 25 µL of standard solution, 25 µL of 2 ng/mL of atropine sulfate monohydrate (Wako Pure Chemical Ind.) or niflumic acid (Sigma-Aldrich) as IS, and 750 µL of methanol were added to 200 µL of plasma samples, followed by mixing and centrifugation (7000× g, 5 min). The supernatant was obtained and dried with the centrifugal evaporator and concentration system after 150 µL of propylene glycol (1%, v/v) was added to the supernatant. The dried residue was then dissolved in 60 μL of the HPLC mobile phase for each analytical method, and a 10 or 20 μL portion was injected into the LC/MS/MS system.
Plasma pharmacokinetic data were analyzed by noncompartmental modeling using Phoenix WinNonlin (version 6.3, Certara L.P., St. Louis, MO, USA) to determine various pharmacokinetic constants, including the maximum concentration (Cmax), time to maximum concentration (tmax), apparent elimination half-life (t1/2), and area under the plasma concentration-time curve from zero to last observation time (AUC0–last). The t1/2 was divided by loge^2/ke, where ke was the terminal elimination (at least three data points on the descending linear limb) rate constant.

[3] = Lipid hydroperoxide (LPO) generation assay (linoleic acid, Fenton reaction); assay type: biochemical
Experimental: Antioxidant assays using linoleic acid with a purity of 98.0% (Wako Pure Chemical Ind.) were performed using a described protocol with modifications. Briefly, 20 μL of 1% linoleic acid in methanol, 20 μL of 20 mmol/L ferrous chloride in water, 20 μL of test sample in DMSO, and 150 μL of a mixed solution (1:1) of methanol and 20 mmol/L phosphate buffer (pH 7.0) were added to 96-well polypropylene plates. After incubation at room temperature in the dark for 1 h, 10 μL of the reaction products were transferred to 200 μL of a methanol solution containing 39 mmol/L ammonium thiocyanate, 0.2 mmol/L ferrous chloride, and 0.01 mol/L hydrochloride. After incubation for 15 min, absorbance at 500 nm was measured using a microplate reader (Multiskan GO, Thermo Fisher Scientific Inc., Waltham, MA, USA). The concentration of lipid hydroperoxide (LPO) products was calculated conveniently using standard curves of serially-diluted linolein hydroperoxides (Cayman Chemical). The percentage of control was calculated using the following formula; (A − B)/(C − B) × 100, with A = test sample, B = linoleic acid alone, and C = vehicle control. Ascorbic acid was used as a reference agent.

[4] = 10 μmol/L, C.I. = complete inhibition, more than 100% = no activity
[5] = 1 μmol/L, C.I. = complete inhibition
[6] = 10 μmol/L, more than 100% = no activity
[7] = rat plasma, single oral KBGY 2 g/kg
[8] = in vivo, rat plasma, single oral KBGY 2 g/kg, read-out: AUC0–last
[9] = in vivo, rat plasma, single oral KBGY 2 g/kg, read-out: Cmax
[10] = in vivo, rat plasma, single oral KBGY 2 g/kg, read-out: tmax

Compound | AUC(0-t) ([2]; rat, in vivo, po, 2 g/kg) | Cmax ([2]; rat, in vivo, po, 2 g/kg) | Tmax ([2]; rat, in vivo, po, 2 g/kg) | Antioxidant Activity (% of Control) ROS Scavenge [1, 4] | Antioxidant Activity (% of Control) LPO Generation [3, 6] | further results
O=C1O[C@H]([C@@H](O)CO)C(O)=C1O [(+)-Ascorbic acid, reference compound] |  |  |  |  |  | Antioxidant Activity (% of Control) ROS Scavenge ([1]; 114 μmol/L, reference agent): 14.5 ± 0.6 % of Control and 20.2 ± 0.6 % of Control
C=C(CC[C@@H](C(=O)O)[C@H]1[C@H](O)C[C@@]2(C)C3=C(CC[C@]12C)[C@@]1(C)CC[C@H](OC(C)=O)C(C)(C)[C@@H]1CC3)C(C)C [Pachymic acid] | 5.29 ng·h/mL | 1.21 ng/mL and 2 nM | 4 h |  |  | 
COc1cc(C(=O)O)cc(O)c1O [3-O-Methylgallic acid] | 58.6 ng·h/mL | 12.7 ng/mL and 69 nM | 1 h | C.I. |  | half-life ([2]; rat, in vivo, po, 2 g/kg): 6.59 h; anti-ROS activity ([1]; 10 μmol/L): strong anti-ROS activity; IC50 [1]: 744 nM
OC[C@H](Cc1cccc(O)c1)[C@H](CO)Cc1cccc(O)c1 [Enterodiol] | 2.91 ng·h/mL | 1.03 ng/mL and 3 nM | 0.5 h | C.I. | 84.9 ± 3.1 % of Control | half-life ([2]; rat, in vivo, po, 2 g/kg): 27.3 h; Antioxidant Activity (% of Control) ROS Scavenge [1, 5]: 67.6 ± 2.4 % of Control; anti-ROS activity ([1]; 10 μmol/L): strong anti-ROS activity; Antioxidant Activity (% of Control) LPO Generation ([3]; 1 μmol/L): 95.2 ± 4.4 % of Control
O=C(O)/C=C/c1ccccc1 [(E)-Cinnamic acid] |  |  |  | 108.7 ± 2.2 % of Control | 104.3 ± 2.3 % of Control | 
COc1cc(C[C@H]2CO[C@H](c3ccc(O)c(OC)c3)[C@H]2CO)ccc1O [Lariciresinol] | 9.84 ng·h/mL | 1.68 ng/mL and 5 nM | 4 h | C.I. | 79.5 ± 1.9 % of Control | Antioxidant Activity (% of Control) ROS Scavenge [1, 5]: C.I.; anti-ROS activity ([1]; 10 μmol/L): strong anti-ROS activity; IC50 [1]: 561 nM; Antioxidant Activity (% of Control) LPO Generation ([3]; 1 μmol/L): 98.3 ± 1.4 % of Control; Antioxidant Activity (% of Control) LPO Generation ([3]; 10 μmol/L, more than 100% = no activity, listed as lariciresinol): less than 80 % of Control
C[C@@]12C[C@@]3(O)O[C@@H](O1)[C@]1(COC(=O)c4ccccc4)[C@H]3C[C@@]12O[C@@H]1O[C@H](CO)[C@@H](O)[C@H](O)[C@H]1O [Paeoniflorin] | 299 ng·h/mL | 80.2 ng/mL and 167 nM |  | 100.2 ± 1.4 % of Control | 92.7 ± 0.9 % of Control | Tmax [2, 7]: 0.5 h; half-life ([2]; rat, in vivo, po, 2 g/kg): 2.72 h
N#C[C@H](O[C@@H]1O[C@H](CO[C@@H]2O[C@H](CO)[C@@H](O)[C@H](O)[C@H]2O)[C@@H](O)[C@H](O)[C@H]1O)c1ccccc1 [Amygdalin] |  |  |  | 106.4 ± 0.5 % of Control | 102.0 ± 2.1 % of Control | AUC(0-t) [2, 8]: 79.9 ng·h/mL; Cmax [2, 9]: 37.7 ng/mL and 82 nM; half-life ([2]; in vivo, rat plasma, single oral KBGY 2 g/kg, read-out: t1/2 (converted)): 0.657 h; Tmax [2, 10]: 0.5 h
C=C(CC[C@@H](C(=O)O)[C@H]1[C@H](O)C[C@@]2(C)C3=C(CC[C@]12C)[C@@]1(C)CC[C@H](O)C(C)(C)[C@@H]1CC3)C(C)C [Tumulosic acid] | 700 ng·h/mL | 200 ng/mL and 411 nM | 0.5 h | 105.9 ± 2.1 % of Control | 99.4 ± 2.3 % of Control | half-life ([2]; rat, in vivo, po, 2 g/kg): 4.66 h
COc1cc([C@@H]2c3c(cc(OC)c(O)c3OC)C[C@H](CO)[C@H]2CO)cc(OC)c1O [Lyoniresinol] |  |  |  | C.I. | 57.4 ± 1.6 % of Control | AUC0–last [2, 7]: 0.3 ng·h/mL; Tmax [2, 7]: 1 h; t1/2 [2, 7]: 11.4 h; Antioxidant Activity (% of Control) ROS Scavenge [1, 5]: 89.3 ± 2.0 % of Control; anti-ROS activity ([1]; 10 μmol/L): strong anti-ROS activity; Antioxidant Activity (% of Control) LPO Generation ([3]; 1 μmol/L): 96.8 ± 2.9 % of Control; Antioxidant Activity (% of Control) LPO Generation ([3]; 10 μmol/L, more than 100% = no activity, listed as lyoniresinol): less than 80 % of Control
O=C(O)CCCCCCCC(=O)O [Azelaic acid] | 39.9 ng·h/mL | 54.7 ng/mL and 291 nM | 0.25 h | 100.4 ± 0.7 % of Control | 97.9 ± 4.4 % of Control | 
N#CC(O)c1ccccc1 (stereo not shown) [Mandelonitrile] |  |  |  | 99.7 ± 0.6 % of Control | 104.6 ± 1.2 % of Control | AUC(0-t) [2, 8]: 251 ng·h/mL; Cmax [2, 9]: 165 ng/mL and 1.24 µM; Tmax [2, 10]: 1 h
O=C(O)CCCCC(=O)O [Adipic acid] | 17.1 ng·h/mL | 14.4 ng/mL and 99 nM | 6 h | 97.0 ± 0.9 % of Control | 103.6 ± 2.9 % of Control | 
Oc1cc(O)c2c(c1)O[C@H](c1ccc(O)c(O)c1)[C@@H](O)C2 [(+)-Catechin] |  |  | 2 h | 7.3 ± 1.1 % of Control | 95.4 ± 3.9 % of Control | AUC0–last ([2]; rat, in vivo, po, 2 g/kg): 65.1 ng·h/mL; anti-ROS activity ([1]; 10 μmol/L): strong anti-ROS activity; IC50 [1]: 621 nM
C=C(CC[C@@H](C(=O)O)[C@H]1[C@H](O)C[C@@]2(C)C3=CC[C@H]4C(C)(C)[C@@H](O)CC[C@]4(C)C3=CC[C@]12C)C(C)C [Dehydrotumulosic acid] |  |  |  | 106.0 ± 0.4 % of Control | 97.4 ± 3.1 % of Control | AUC(0-t) ([2]; rat plasma, single oral KBGY 2 g/kg, read-out: AUC0–last): 39.5 ng·h/mL; Cmax ([2]; rat plasma, single oral KBGY 2 g/kg, read-out: Cmax): 15.5 ng/mL and 32 nM; half-life ([2]; rat plasma, single oral KBGY 2 g/kg, read-out: t1/2 (converted)): 3.81 h; Tmax ([2]; rat plasma, single oral KBGY 2 g/kg, read-out: tmax): 0.5 h
C[C@]12C[C@@H](O)[C@@H]3C[C@@]1(O[C@@H]1O[C@H](CO)[C@@H](O)[C@H](O)[C@H]1O)[C@@]3(COC(=O)c1ccccc1)C(=O)O2 [Albiflorin] |  |  |  | 104.2 ± 1.1 % of Control | 101.6 ± 2.2 % of Control | AUC0–last [2, 7]: 64.9 ng·h/mL; Tmax [2, 7]: 0.5 h; t1/2 [2, 7]: 1.6 h
O=C/C=C/c1ccccc1 [Cinnamaldehyde] | 51.6 ng·h/mL | 11.5 ng/mL and 87 nM | 1 h | 103.8 ± 1.1 % of Control | 109.8 ± 3.9 % of Control | half-life ([2]; rat, in vivo, po, 2 g/kg): 5.21 h
